This note sets out measurements from paper PMC8032764 (Scientific Reports, 2021).

One series relates to T1, Cannabinoid CB1.
T1 construct: host or cells: CHO
Briefly: Cerep binding. Further details: species or system human. The conditions noted are these: 10 μM; [3H]CP 55940; hum. recomb. (CHO).

For a further series, the system named is T2, Histamine H1.
T2 construct: host or cells: HEK-293
The experiment in a line: Cerep binding. More on the design: species or system human. The conditions noted are these: 10 μM; [3H]pyrilamine; hum. recomb. (HEK-293).

The next series has as its system T3, Serotonin 5-HT2A.
T3 construct: purchased Eurofins Cerep
Briefly: Cerep binding. More on the design: species or system human. The conditions noted are these: 10 μM; [3H]ketanserin; hum. recomb. (HEK-293).

For a further series, the system named is T4, Serotonin 5-HT3.
T4 construct: purchased Eurofins Cerep
Briefly: Cerep binding. Further details: species or system human. The conditions noted are these: 10 μM; [3H]BRL 43694; hum. recomb. (CHO).

A further series concerns T5, Angiotensin AT2.
T5 construct: purchased Eurofins Cerep
The experiment in a line: Cerep binding. Further details: species or system human. The following applies: 10 μM; [125I]CGP 42112A; hum. recomb. (CHO).

For another series, the system named is Bombesin (non-selective). Briefly: Cerep binding. The following applies: 10 μM; [125I][Tyr4]bombesin; rat cerebral cortex.
For the next series, the system named is T6, Bradykinin B2.
T6 construct: purchased Eurofins Cerep
The experiment in a line: Cerep binding. Further details: species or system human. The conditions noted are these: 10 μM; [3H]bradykinin; hum. recomb. (CHO).

Series [1] relates to T7, Calcitonin gene related peptide (CGRP).
T7 construct: purchased Eurofins Cerep
The experiment in a line: Cerep binding. Further details: species or system human. The following applies: 10 μM; [125I]hCGRPα; hum. recomb. (CHO).

In another series the test system is T8, Cholecystokinin CCK2.
T8 construct: purchased Eurofins Cerep
The experiment in a line: Cerep binding. More on the design: species or system human. The following applies: 10 μM; [125I]CCK-8s; hum. recomb. (CHO).

The subject of another series is T9, Neurokinin NK3.
T9 construct: purchased Eurofins Cerep
Briefly: Cerep binding. More on the design: species or system human. The following applies: 10 μM; [3H]SR 142801; hum. recomb. (CHO).

Another series deals with T10, Neuropeptide Y1.
T10 construct: purchased Eurofins Cerep
The experiment in a line: Cerep binding. More on the design: species or system human. The following applies: 10 μM; [125I]peptide YY; hum., SK-N-MC cells.

In a further series the test system is T11, Opioid μ.
T11 construct: host or cells: HEK-293
The experiment in a line: Cerep binding. Further details: species or system human. The conditions noted are these: 10 μM; [3H]DAMGO; hum. recomb. (HEK-293).

For a further series, the system named is cynomolgus macaques. Briefly: Object retrieval task. Type of series: in vivo, Macaca fascicularis. The following applies: 2 h prior to testing. The procedure:
Twelve cynomolgus macaques were presented with a clear acrylic box with one open side baited with a food treat, as described previously[14],[38]. The test is easy when the open side of the box is directed towards the subject and difficult when the open sides face other directions. […] Compound doses were administered in a pseudorandom order. Administration of dose and behavioral measurements were completed blind. Data were analysed using a one-way repeated measures ANOVA followed, in significant cases, by a post hoc Dunnett’s test. Plasma samples were collected from the same three subjects at each dose group at 3 h post administration.

In another series the test system is Wistar rats. The experiment in a line: Pentylenetetrazole (PTZ) test. Format: in vivo, rat. How it is done:
PTZ was prepared in 0.9% saline and was administered s.c. in a volume of 1 mL/kg. The positive control FG7142, a non-selective GABAA receptor NAM, was prepared in 0.3% Tween 80 v/v saline and was administered i.p. in a volume of 1 mL/kg. […] During this period the number of rats showing tonic convulsions was noted.
FG7142 was administered at 10 mg/kg 30 min prior to PTZ. The percent of rats in each dose group showing tonic convulsions was compared to the control group by the Pearson Chi-Square test.

The next series has as its system rats. The experiment in a line: GLP toxicology and safety pharmacology, daily oral administration. Type of series: in vivo, rat. The following applies: supra-therapeutic plasma exposures, up to 26 weeks.
A further series relates to non-impaired rodents. Briefly: Cognitive performance in non-impaired rodents. Format: in vivo. The conditions noted are these: data not shown.

Each structure is given as a SMILES string.

As to `Cc1onc(-c2ccc(F)cc2)c1COc1ccc(C(=O)N2CCS(=O)(=O)CC2)cn1` [basmisanil], the % Inhibition (as a rule, the drop in the measured response relative to a control, in per cent) is 16% in the series with Cannabinoid CB1; 10% in the series with Histamine H1; -9% with Serotonin 5-HT2A; 8% in the series with Serotonin 5-HT3; -3% in the series with Angiotensin AT2; -24% with Bombesin (non-selective). Further, the “% Inhibition” value was 14% with Bradykinin B2; -6% in series [1]; -21% in the series on Cholecystokinin CCK2; -9% in the series with Neurokinin NK3; 0% in the series on Neuropeptide Y1; 3% in the series on Opioid μ. In addition, the “percentage of correct first reaches during difficult trials” value with cynomolgus macaques (1 and 30 mg/kg p.o.) is recorded as “no marked improvement on performance”; with cynomolgus macaques (3 and 10 mg/kg p.o.) it was “significantly improved”. For the same compound, the proconvulsant activity result in the series with Wistar rats (female rats, 30 mg/kg, 2 h prior to PTZ 70 mg/kg) is on record as “did not exert proconvulsant activity”; in the series with Wistar rats (male rats, single doses up to 100 mg/kg, 1 h prior to PTZ 55 mg/kg), “did not exert proconvulsant activity”. Also, the “rats exhibiting tonic convulsions” value in the series with Wistar rats (female rats, 100 mg/kg, threshold dose of PTZ, p < 0.05) is reported as “five out of eight”. The “rats exhibiting tonic convulsions, compared with 100 mg/kg” value in the series on Wistar rats (female rats, 300 and 600 mg/kg, p < 0.05) is listed as “identical effects”. The “convulsions and EEG alterations” value in the series on rats is “no convulsions and no EEG alterations”. Further, the “enhancement of cognitive performance” value with non-impaired rodents is recorded as “have not shown enhancement of cognitive performance”.
